Our source for the inhibition, solubility and microsomal CLint values is patent publication US20240368133A1, “Compounds for the Treatment of Pain, in Particular, Neuropathic Pain, and/or Other Diseases or Disorders that are Associated with AT2R and/or AT2R Mediated Signaling” (Confo Therapeutics N.V., priority 2021, published 2024).

Values after ≈ are worked out from the molar mass of the structure shown. Where two headings read alike, the source gives them in different places. Where only a bound is given, the exact number is not on record here.

In data set [1] the target is CYP2D6 (Homo sapiens (Human), UniProt P10635). The data set can be described thus: CYP inhibition, CYP2D6. The following applies: test compound at 10 μM, read-out: % Inhibition (PIN) 2D6. The data set is classed as in vitro ADME. The procedure: (§1) The aim of this assay is to determine the inhibitory potential of a test compound. A major concern for drug-drug-interaction is cytochrome P450 inhibition. Reversible CYP inhibition was determined in human liver microsomes using specific probe substrates for human cytochrome P450 isoenzymes CYP1A2, 2C9, 2C19, 2D6 and 3A4. […]
CYP2D6, sequence (P10635 whole entry): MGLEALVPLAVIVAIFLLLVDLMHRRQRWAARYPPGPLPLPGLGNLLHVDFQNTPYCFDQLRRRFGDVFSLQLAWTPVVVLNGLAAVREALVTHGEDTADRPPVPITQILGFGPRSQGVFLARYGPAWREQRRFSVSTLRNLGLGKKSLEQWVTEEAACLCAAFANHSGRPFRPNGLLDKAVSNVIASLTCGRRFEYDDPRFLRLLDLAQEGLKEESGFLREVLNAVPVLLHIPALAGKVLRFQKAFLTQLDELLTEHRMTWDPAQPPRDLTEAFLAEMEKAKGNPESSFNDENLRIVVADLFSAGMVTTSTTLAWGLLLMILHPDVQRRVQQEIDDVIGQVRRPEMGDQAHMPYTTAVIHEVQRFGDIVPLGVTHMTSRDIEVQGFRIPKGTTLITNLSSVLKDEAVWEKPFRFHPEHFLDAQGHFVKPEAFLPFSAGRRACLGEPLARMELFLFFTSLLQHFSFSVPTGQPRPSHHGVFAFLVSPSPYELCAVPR
(§2) A 10 mM stock solution of test compound is prepared in methanol. This stock is further serially diluted 1:3 in methanol and then added to mixture containing 50 mM potassium phosphate buffer pH7.4, human liver microsomes (BD Gentest) and probe substrate. After pre-warming 5 min at 37° C., the reaction is started by adding co-factor mix ([…] glucose-6-phosphate, 1.7 mg/mL NADP, 6 U/mL of glucose-6-phosphate dehydrogenase), resulting in a final concentration of test compound at 10 μM (2% MeOH).
(§3) Final concentrations of co-factor mix components are as follows: 1.56 mg/mL glucose-6-phosphate, 0.34 mg/mL NADP, 1.2 U/mL of glucose-6-phosphate dehydrogenase.
(§4) After incubation at 37° C., the reaction (aliquot of 50 μL) is terminated with 150 μL CH3CN:MeOH (2:1) solution with internal standard (warfarin for 2C9, diclofenac for all other tested isoforms). Samples are centrifuged and the supernatant fractions analyzed by LC-MS/MS.
(§5) The instrument responses (ratio of test compound and internal standard peak areas) are referenced to those for solvent controls (assumed as 100%) in order to determine the percentage reduction in probe metabolism. Percent of control activity vs. concentration plots are generated and fitted using GraphPad Prism software to generate IC50.

For data set [2], the target named is CYP2C19 (Homo sapiens (Human), UniProt P33261). Description: CYP inhibition, CYP2C19. In kind it is in vitro ADME. The settings on record: test compound at 10 μM, read-out: % Inhibition (PIN) 2C19. The protocol:
as §1, §2, §3, §4, §5

Data set [3] can be described thus: Kinetic solubility. The data set is classed as physicochemical. The settings on record: kinetic from dmso stock. The protocol:
Starting from a 20 mM stock solution of test compound in 100% DMSO, dilutions were prepared to a theoretical concentration of 400 μM in duplicates in phosphate-buffered saline pH 7.4 (PBS) (138 mM NaCl, 2.7 mM KCl, 10 mM K-phosphate) and 100 mM citrate buffer pH 3.0 with 2% final DMSO.
The experimental compound dilutions in PBS and citrate buffer were further allowed to equilibrate at 25° C. on a thermostatic orbital shaker for two hours and then centrifuged at 14000 rpm, 5 min and filtered through HTS filter plates using a vacuum manifold. The filtrates of test compounds were diluted 2-fold with acetonitrile with 2% DMSO before measuring. In parallel, compound dilutions in 50% acetonitrile/buffer were prepared to the theoretical concentrations of 0 μM (blank), 100 μM, 200 μM and 400 μM with 2% final DMSO to generate calibration curves.
Ondansetron (Sigma Aldrich USA, cat #03639) was used as a reference to control proper assay performance. 200 μl of each sample were transferred to a 96-well plate and solubility was measured in a 200-550 nm range (in steps of 5 nm). The measurements were performed using a Spectra Max Plus reader in UV-Vis mode. Acquisition and analysis of the data were performed using SoftMax Pro v.5.4 (Molecular Devices) and Excel 2010 data analysis software. Proper absorbance wavelengths for calculations were selected for each compound manually based on absorbance maximums (absolute absorbance unit values for the minimum and maximum concentration points within 0-3 OD range). Each of the final datasets was additionally visually evaluated by the operator and goodness of fit (R2) is calculated for each calibration curve.

Data set [4] is described as follows: Liver microsomal stability, human. The data set is classed as in vitro ADME. The settings on record: pH 7.4, liver microsomes.
Setting [5] is: aqueous buffer, kinetic solubility, phosphate-buffered saline pH 7.4, 2% DMSO, 25° C., two hours, read-out: PBS solubility, pH 7.4.
Setting [6] is: citrate buffer, 25 °C, pH 3, aqueous buffer, read-out: Citrate buffer solubility, pH 3.0.

CYP2C19, sequence (P33261 whole entry): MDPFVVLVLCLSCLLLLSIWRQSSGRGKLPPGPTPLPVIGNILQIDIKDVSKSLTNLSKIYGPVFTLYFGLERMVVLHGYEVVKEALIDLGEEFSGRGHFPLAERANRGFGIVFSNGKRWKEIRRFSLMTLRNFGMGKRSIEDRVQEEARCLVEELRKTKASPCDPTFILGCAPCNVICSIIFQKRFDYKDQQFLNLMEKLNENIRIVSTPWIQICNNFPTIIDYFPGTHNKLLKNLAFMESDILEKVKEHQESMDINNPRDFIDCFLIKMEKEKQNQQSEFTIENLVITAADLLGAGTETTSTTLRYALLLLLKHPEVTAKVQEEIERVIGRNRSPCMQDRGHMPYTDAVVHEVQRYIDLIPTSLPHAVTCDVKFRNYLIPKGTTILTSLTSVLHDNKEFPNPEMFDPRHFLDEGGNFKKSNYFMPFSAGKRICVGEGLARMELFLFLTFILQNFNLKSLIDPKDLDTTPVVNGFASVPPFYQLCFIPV

What is called inhibition is the percentage by which the read-out fell short of the control. As usually defined, the solubility is the dissolved amount per volume that the medium holds. A word on the microsomal CLint: it is the capacity of the preparation to metabolise the compound, expressed as a volume cleared per time. A low value points to slow turnover. With `CC(C)Cc1ccc(-c2nn[nH]n2)c(N2CCN(Cc3nc4ccccc4c(=O)[nH]3)CC2)c1` [Compound A-31, 2-[[4-[5-isobutyl-2-(2H-tetrazol-5-yl)phenyl]piperazin-1-yl]methyl]-3H-quinazolin-4-one], the inhibition at 10 µM was found to be 23.1% in data set [1] and 73% in data set [2]. Moreover, the values for the solubility at 2 h in data set [3] (setting [5]) and in data set [3] (setting [6]) were at least 400 µM and 40 µM (≈ 17.8 µg/mL), respectively. This compound returned a microsomal CLint in data set [4] of 8 µL/min/mg.

On to `CC(C)Oc1ccc(-c2nn[nH]n2)c(N2CCN(Cc3nc4ccccc4c(=O)[nH]3)CC2)c1` [Compound A-32], for which the figures for the inhibition at 10 µM in data set [1] and in data set [2] were 38.2% and 48.6%, respectively. Besides, the solubility at 2 h in data set [3] (setting [5]) is 394 µM (≈ 176 µg/mL); in data set [3] (setting [6]) it was 399 µM (≈ 178 µg/mL). This compound also displayed a microsomal CLint in data set [4] of 10 µL/min/mg.

As for `CC(C)Cc1ccc(-c2nn[nH]n2)c(N2CCN(Cc3cccnn3)CC2)c1` [Compound A-90, 3-[[4-[5-isobutyl-2-(2H-tetrazol-5-yl)phenyl]piperazin-1-yl]methyl]pyridazine], the inhibition at 10 µM in data set [1] turned out to be 1.84%; in data set [2] it was 27.9%. Besides, the solubility at 2 h in data set [3] (setting [5]) and in data set [3] (setting [6]) was at least 400 µM throughout. Moreover, the microsomal CLint in data set [4] worked out at 7 µL/min/mg.

With `CC(C)Cc1cc(F)c(-c2nn[nH]n2)c(N2CCN(Cc3cccnn3)C(C)C2)c1` (stereo not drawn) [Compound A-173, 3-[[4-[3-fluoro-5-isobutyl-2-(2H-tetrazol-5-yl)phenyl]-2-methyl-piperazin-1-yl]methyl]pyridazine], the inhibition at 10 µM worked out at 16.3% in data set [1] and 8.93% in data set [2]. Moreover, the results for the solubility at 2 h in data set [3] (setting [5]) and in data set [3] (setting [6]) were 376 µM (≈ 154 µg/mL) and 356 µM (≈ 146 µg/mL), respectively. The microsomal CLint in data set [4] came out at 4 µL/min/mg.

As to `CC(C)Cc1cc(F)c(-c2nn[nH]n2)c(N2CCN(Cc3cccnn3)[C@@H](C)C2)c1` [Compound A-174, 3-[[(2S)-4-[3-fluoro-5-isobutyl-2-(2H-tetrazol-5-yl)phenyl]-2-methyl-piperazin-1-yl]methyl]pyridazine], the inhibition at 10 µM in data set [1] worked out at 9.35%; in data set [2] it was 26.5%. Besides, the solubility at 2 h in data set [3] (setting [5]) amounted to 385 µM (≈ 158 µg/mL); in data set [3] (setting [6]), 356 µM (≈ 146 µg/mL). This compound also returned an intrinsic metabolic clearance (microsomal CLint) in data set [4] of under 6.6 µL/min/mg.

With `CCC1CN(c2cc(CC(C)C)cc(F)c2-c2nn[nH]n2)CCN1Cc1cccnn1` (stereo not drawn) [Compound A-178, 3-[[2-ethyl-4-[3-fluoro-5-isobutyl-2-(2H-tetrazol-5-yl)phenyl]piperazin-1-yl]methyl]pyridazine], the results for the inhibition at 10 µM in data set [1] and in data set [2] were 25.6% and 7.77%, respectively. In addition, the solubility at 2 h in data set [3] (setting [5]) and in data set [3] (setting [6]) was at least 400 µM each time. Also, the microsomal CLint in data set [4] worked out at 20 µL/min/mg.
